Test results taken from patent US20150299143A1, “SUBSTITUTED TRIAZOLE AND IMIDAZOLE COMPOUNDS” (HOFFMANN-LA ROCHE INC., priority 2012, published 2015).
Read-outs that look alike come from different tables or passages of the source.

Legend:
[1] = molecular target: T1, β 5i (chymotrypsin-like activity) (Homo sapiens, UniProt P20618+P28062); experiment: Cell-Based Proteasome subunit activity/selectivity assay, β5i, substrate (ANW)2Rh110; conditions: Ramos cells; substrate (ANW)2Rh110 (β5i); highest concentration tested 20 μM; read-out: Ic50:ramos:ac-(anw)2-r110
T1 construct: protease activity associated with the proteasome complex in cultured cells; endogenous in cells; host or cells: Ramos cells
Text: (§1) Cell-Based Proteasome Activity/Selectivity Assay
(§2) The Cell-Based Proteasome subunit activity/selectivity assay was a panel of 5 fluorogenic assays that independently measured the activity of β5c or β 5i (chymotrypsin-like activity), β 2c/2i (trypsin-like), and β 1c or β 1i (caspase-like) protease activity associated with the proteasome complex in cultured cells. Specifically, the following substrates were used for respective subunit activities: β 1i (PAL)2Rh110, β 1c: (LLE)2 Rh110, β 2c/2i: (KQL)2Rh110, β 5c: (WLA)2Rh110, β 5i: (ANW)2Rh110. The following procedure was followed:
(§3) Added 0.5 μl of 100× 4-fold serial diluted test compounds or DMSO to each well. Highest concentration of compound tested was 20 μM, thus compound serial dilution started from […]. Incubated for 30 minutes at 37° C. Then equilibrated at room temperature for 15 minutes. […] Shaked for one minute @ 700 rpm. Incubated for 120 min at room temperature. Then read the plates with an Envision multilabel plate reader (PerkinElmer) with 500 nm excitation/519 nm emission.

[2] = molecular target: T2, β5c (chymotrypsin-like activity) (Homo sapiens, UniProt P20618+P28074); experiment: Cell-Based Proteasome subunit activity/selectivity assay, β5c, substrate (WLA)2Rh110
T2 construct: protease activity associated with the proteasome complex in cultured cells; endogenous in cells; host or cells: Ramos cells
Text: as §1, §2, §3

[3] = system: β 2c/2i (trypsin-like); experiment: Cell-Based Proteasome subunit activity/selectivity assay, β2c/2i, substrate (KQL)2Rh110; conditions: Ramos cells; substrate (KQL)2Rh110 (β2c/2i); highest concentration tested 20 μM
Text: as §1, §2, §3

[4] = molecular target: T3, β 1i (caspase-like) (Homo sapiens, UniProt P28065+P40306); experiment: Cell-Based Proteasome subunit activity/selectivity assay, β1i, substrate (PAL)2Rh110
T3 construct: protease activity associated with the proteasome complex in cultured cells; endogenous in cells; host or cells: Ramos cells
Text: as §1, §2, §3

[5] = molecular target: T4, β 1c (caspase-like) (Homo sapiens, UniProt P28072+Q99436); experiment: Cell-Based Proteasome subunit activity/selectivity assay, β1c, substrate (LLE)2Rh110
T4 construct: protease activity associated with the proteasome complex in cultured cells; endogenous in cells; host or cells: Ramos cells
Text: as §1, §2, §3

[6] = Ramos cells, substrate (WLA)2Rh110 (β5c), highest concentration tested 20 μM, read-out: Ic50:ramos:rh110-(wla)2
[7] = Ramos cells, substrate (PAL)2Rh110 (β1i), highest concentration tested 20 μM, read-out: Ic50:ramos:rh110-(pal)2
[8] = Ramos cells, substrate (LLE)2Rh110 (β1c), highest concentration tested 20 μM, read-out: Ic50:ramos:rh110-(lle)2

Row | IC50 [1] | IC50 [2, 6] | IC50 [3] | IC50 [4, 7] | IC50 [5, 8] | IC50 [2] | IC50 [4] | IC50 [5] | Compound
1 | 1740 nM | ≥ 20 µM | ≥ 20 µM | ≥ 20 µM | ≥ 20 µM | – | – | – | COc1ccc(C(=O)NCCn2cc(C(=O)NC(C#N)c3ccc(C(F)(F)F)cc3)nn2)c(F)c1 (stereo not drawn) [Example 74, 1-[2-(2-Fluoro-4-methoxy-benzoylamino)-ethyl]-1H-[1,2,3]triazole-4-carboxylic acid [cyano-(4-trifluoromethyl-phenyl)-methyl]-amide]
2 | 1310 nM | ≥ 20 µM | ≥ 20 µM | ≥ 20 µM | 17.1 µM | – | – | – | COc1ccc(C(=O)NCCn2cc(C(=O)NC(C#N)c3ccc(C(C)C)cc3)nn2)c(OC)c1OC (stereo not drawn) [Example 61, 1-[2-(2,3,4-Trimethoxy-benzoylamino)-ethyl]-1H-[1,2,3]triazole-4-carboxylic acid [cyano-(4-isopropyl-phenyl)-methyl]-amide]
3 | 1130 nM | ≥ 20 µM | ≥ 20 µM | ≥ 20 µM | ≥ 20 µM | – | – | – | CCc1ccc(C(C#N)NC(=O)c2cn(CCNC(=O)c3ccc(C(F)(F)F)cn3)nn2)cc1 (stereo not drawn) [Example 45, 5-Trifluoromethyl-pyridine-2-carboxylic acid [2-(4-{[cyano-(4-ethyl-phenyl)-methyl]-carbamoyl}-[1,2,3]triazol-1-yl)-ethyl]-amide]
4 | 28 nM | 16.2 µM | ≥ 20 µM | ≥ 20 µM | ≥ 20 µM | – | – | – | CCc1ccc(C(C#N)NC(=O)c2cn(CCNC(=O)c3ccc(C(F)(F)F)cc3OC)nn2)cc1 (stereo not drawn) [Example 23, 1-[2-(2-Methoxy-4-trifluoromethyl-benzoylamino)-ethyl]-1H-[1,2,3]triazole-4-carboxylic acid [cyano-(4-ethyl-phenyl)-methyl]-amide]
5 | 4110 nM | ≥ 20 µM | ≥ 20 µM | ≥ 20 µM | ≥ 20 µM | – | – | – | COc1ccc(C(=O)NCCn2cc(C(=O)NCc3ccc(C)c(C)c3)nn2)c(OC)c1OC [Example 4, 1-[2-(2,3,4-Trimethoxy-benzoylamino)-ethyl]-1H-[1,2,3]triazole-4-carboxylic acid 3,4-dimethyl-benzylamide]
6 | 585 nM | ≥ 20 µM | ≥ 20 µM | ≥ 20 µM | ≥ 20 µM | – | – | – | COc1ccc(C(=O)NCCn2cc(C(=O)NC(C#N)c3ccc4c(c3)OCO4)nn2)c(OC)c1OC (stereo not drawn) [Example 53, 1-[2-(2,3,4-Trimethoxy-benzoylamino)-ethyl]-1H-[1,2,3]triazole-4-carboxylic acid (benzo[1,3]dioxol-5-yl-cyano-methyl)-amide]
7 | 17 nM | ≥ 20 µM | ≥ 20 µM | ≥ 20 µM | ≥ 20 µM | – | – | – | CCc1ccc(C(C#N)NC(=O)c2cn(CCNC(=O)c3ccc(C(F)(F)F)cc3F)nn2)cc1 (stereo not drawn) [Example 38, 1-[2-(2-Fluoro-4-trifluoromethyl-benzoylamino)-ethyl]-1H-[1,2,3]triazole-4-carboxylic acid [cyano-(4-ethyl-phenyl)-methyl]-amide]
8 | 159 nM | 3.39 µM | ≥ 20 µM | 0.976 µM | ≥ 20 µM | – | – | – | CC(CCc1ccccc1)NC(=O)c1cn(CCNC(=O)c2ccc(C(F)(F)F)cc2F)nn1 (stereo not drawn) [Example 79, 1-[2-(2-Fluoro-4-trifluoromethyl-benzoylamino)-ethyl]-1H-[1,2,3]triazole-4-carboxylic acid (1-methyl-3-phenyl-propyl)-amide]
9 | 5490 nM | ≥ 20 µM | ≥ 20 µM | ≥ 20 µM | ≥ 20 µM | – | – | – | COc1ccc(C(=O)NCCn2cc(C(=O)NC(C#N)c3ccc(OC(C)C)cc3)nn2)c(OC)c1OC (stereo not drawn) [Example 67, 1-[2-(2,3,4-Trimethoxy-benzoylamino)-ethyl]-1H-[1,2,3]triazole-4-carboxylic acid [cyano-(4-isopropoxy-phenyl)-methyl]-amide]
10 | 80 nM | ≥ 20 µM | ≥ 20 µM | ≥ 20 µM | ≥ 20 µM | – | – | – | CCc1ccc(C(C#N)NC(=O)c2cn(CCNC(=O)c3ccc(OC)c(OC)c3OC)nn2)cc1 (stereo not drawn) [Example 1, 1-[2-(2,3,4-Trimethoxy-benzoylamino)-ethyl]-1H-[1,2,3]triazole-4-carboxylic acid [cyano-(4-ethyl-phenyl)-methyl]-amide]
11 | 58 nM | ≥ 20 µM | ≥ 20 µM | ≥ 20 µM | ≥ 20 µM | – | – | – | CCc1ccc(C(C#N)NC(=O)c2cn(CCNC(=O)c3ccc(OC)c(OC)c3OC)nn2)cc1 (single isomer, unassigned) [Example 50]
12 | 282 nM | ≥ 20 µM | ≥ 20 µM | ≥ 20 µM | ≥ 20 µM | – | – | – | CCc1ccc(C(C#N)NC(=O)c2cn(CCNC(=O)c3ccc(S(C)(=O)=O)cc3Cl)nn2)cc1 (stereo not drawn) [Example 41, 1-[2-(2-Chloro-4-methanesulfonyl-benzoylamino)-ethyl]-1H-[1,2,3]triazole-4-carboxylic acid [cyano-(4-ethyl-phenyl)-methyl]-amide]
13 | 6490 nM | – | ≥ 20 µM | – | – | ≥ 20 µM | ≥ 20 µM | ≥ 20 µM | COc1ccc(C(=O)NCCn2cc(C(=O)NC(C#N)c3cccc4ccccc34)nn2)c(OC)c1OC (stereo not drawn) [Example 57, 1-[2-(2,3,4-Trimethoxy-benzoylamino)-ethyl]-1H-[1,2,3]triazole-4-carboxylic acid (cyano-naphthalen-1-yl-methyl)-amide]
14 | 134 nM | 16.1 µM | ≥ 20 µM | ≥ 20 µM | ≥ 20 µM | – | – | – | CCc1ccc(C(C#N)NC(=O)c2cn(CCNC(=O)c3ccc(Cl)cc3F)nn2)cc1 (stereo not drawn) [Example 31, 1-[2-(4-Chloro-2-fluoro-benzoylamino)-ethyl]-1H-[1,2,3]triazole-4-carboxylic acid [cyano-(4-ethyl-phenyl)-methyl]-amide]
15 | 163 nM | ≥ 20 µM | ≥ 20 µM | ≥ 20 µM | ≥ 20 µM | – | – | – | O=C(N[C@@H](CCc1ccccc1)C(=O)O)c1cn(CCNC(=O)c2ccc(C(F)(F)F)cc2F)nn1 [Example 82, (S)-2-({1-[2-(2-Fluoro-4-trifluoromethyl-benzoylamino)-ethyl]-1H-[1,2,3]triazole-4-carbonyl}-amino)-4-phenyl-butyric acid]
16 | 205 nM | ≥ 20 µM | ≥ 20 µM | ≥ 20 µM | ≥ 20 µM | – | – | – | CCOC(=O)[C@H](CCc1ccccc1)NC(=O)c1cn(CCNC(=O)c2ccc(C(F)(F)F)cc2F)nn1 [Example 81, (S)-2-({1-[2-(2-Fluoro-4-trifluoromethyl-benzoylamino)-ethyl]-1H-[1,2,3]triazole-4-carbonyl}-amino)-4-phenyl-butyric acid ethyl ester]
17 | 682 nM | ≥ 20 µM | ≥ 20 µM | ≥ 20 µM | ≥ 20 µM | – | – | – | CCc1ccc(C(C#N)NC(=O)c2cn(CCNC(=O)c3cc(OC)ccc3F)nn2)cc1 (stereo not drawn) [Example 32, 1-[2-(2-Fluoro-5-methoxy-benzoylamino)-ethyl]-1H-[1,2,3]triazole-4-carboxylic acid [cyano-(4-ethyl-phenyl)-methyl]-amide]
18 | 1160 nM | ≥ 20 µM | ≥ 20 µM | ≥ 20 µM | ≥ 20 µM | – | – | – | CCc1ccc(CNC(=O)c2cn(CCNC(=O)c3ccc(OC)c(OC)c3OC)nn2)cc1 [Example 7, 1-[2-(2,3,4-Trimethoxy-benzoylamino)-ethyl]-1H-[1,2,3]triazole-4-carboxylic acid 4-ethyl-benzylamide]
19 | 3050 nM | ≥ 20 µM | ≥ 20 µM | ≥ 20 µM | ≥ 20 µM | – | – | – | CCc1ccc(C(C#N)NC(=O)c2cn(CCNC(=O)c3cccnc3OC)nn2)cc1 (stereo not drawn) [Example 29, N-[2-(4-{[Cyano-(4-ethyl-phenyl)-methyl]-carbamoyl}-[1,2,3]triazol-1-yl)-ethyl]-2-methoxy-nicotinamide]
20 | 2060 nM | ≥ 20 µM | ≥ 20 µM | ≥ 20 µM | ≥ 20 µM | – | – | – | CCc1ccc(C(C#N)NC(=O)c2cn(CCNC(=O)c3ccc(F)cc3OC)nn2)cc1 (stereo not drawn) [Example 36, 1-[2-(4-Fluoro-2-methoxy-benzoylamino)-ethyl]-1H-[1,2,3]triazole-4-carboxylic acid [cyano-(4-ethyl-phenyl)-methyl]-amide]
21 | 4020 nM | ≥ 20 µM | ≥ 20 µM | ≥ 20 µM | ≥ 20 µM | – | – | – | COc1ccc(C(=O)NCCn2cc(C(=O)NC(C#N)c3cccc(SC)c3)nn2)c(OC)c1OC (stereo not drawn) [Example 55, 1-[2-(2,3,4-Trimethoxy-benzoylamino)-ethyl]-1H-[1,2,3]triazole-4-carboxylic acid [cyano-(3-methylsulfanyl-phenyl)-methyl]-amide]
